# pIC50: −log10 of the molar value.
# How the values were obtained:
# [1] = molecular target: histone deacetylase, subtype 1 (HDAC1) (Homo sapiens (Human), UniProt Q13547); test: HDAC1-Flag in vitro deacetylation assay; type: biochemical; settings: IP = inflection point; read-out: HDAC1 IP (inflection point)
# Description: Novel compounds were tested for their ability to inhibit histone deacetylase, subtype 1 (HDAC1) using an in vitro deacetylation assay. The enzyme source for this assay was an epitope-tagged human HDAC1 complex immuno-purified from stably expressing mammalian cells. The substrate consisted of a commercial product containing an acetylated lysine side chain (BIOMOL Research Laboratories, Inc., Plymouth Meeting, Pa.). Upon deacetylation of the substrate by incubation with the purified HDAC1 complex, a fluorophore is produced that is directly proportional to the level of deacetylation.
# [2] = tested on: human cervical cancer (HeLa) and colon carcinoma (HCT116) cells; test: ATP (Vialight) cell proliferation assay, 72 hr; type: cell-based; settings: IP = inflection point, cell line not given, read-out: Prol-72 hr IP (inflection point)
# Description: The novel compounds of the present invention were tested for their ability to inhibit proliferation of the human cervical cancer (HeLa) and colon carcinoma (HCT116) cells.
# In this assay, also referred to as the Vialight Assay, cellular ATP levels are measured as a means of quantifying cellular proliferation. This assay makes use of a bioluminescent method from Cambrex (ViaLight PLUS, cat. #LT07-121). In the presence of ATP, luciferase converts luciferin to oxyluciferin and light. The amount of light produced (emission at 565 nm) is measured and correlates with a relative amount of proliferation. Human cervical cancer (HeLa) or colon carcinoma (HCT116) cells were incubated with vehicle or increasing concentrations of compound for 48, 72 or 96 hours. Cell proliferation was quantified by adding the cell lysis reagent (provided in the Vialight assay kit) directly to culture wells, followed by addition of the ATP-monitoring reagent (containing luciferase/luciferin). The amount of light produced is then measured (emission at 565 nm). The quantity of light produced, as measured by […], is directly proportional to the number of living cells in culture.
# histone deacetylase, subtype 1 (HDAC1), sequence (Q13547 whole entry): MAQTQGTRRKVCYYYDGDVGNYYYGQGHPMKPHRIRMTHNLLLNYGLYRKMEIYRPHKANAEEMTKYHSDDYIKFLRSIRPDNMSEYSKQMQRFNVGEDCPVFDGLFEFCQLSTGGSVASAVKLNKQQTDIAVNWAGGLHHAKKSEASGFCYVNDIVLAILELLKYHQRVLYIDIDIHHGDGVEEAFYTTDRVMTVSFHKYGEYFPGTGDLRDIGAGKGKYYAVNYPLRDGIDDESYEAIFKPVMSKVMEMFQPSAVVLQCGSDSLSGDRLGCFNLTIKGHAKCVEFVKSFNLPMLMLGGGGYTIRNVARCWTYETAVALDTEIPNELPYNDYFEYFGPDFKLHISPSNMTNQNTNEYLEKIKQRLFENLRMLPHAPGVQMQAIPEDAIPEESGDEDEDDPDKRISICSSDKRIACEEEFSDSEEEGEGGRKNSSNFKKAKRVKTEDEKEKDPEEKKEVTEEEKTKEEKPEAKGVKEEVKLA
SMILES,pIC50 [1],pIC50 [2]
"Nc1ccc(-c2ccccc2)cc1NC(=O)c1ccc(CNC(=O)Cc2ccncc2)cc1 [Example 52, N-(4-aminobiphenyl-3-yl)-4-{[(pyridin-4-ylacetyl)amino]methyl}benzamide]",7.82,6.60
"Nc1ccc(-c2cccs2)cc1NC(=O)c1ccc(CNC(=O)C2CCCC2)cc1 [Example 46, N-[2-amino-5-(2-thienyl)phenyl]-4-{[(cyclopentylcarbonyl)amino]methyl}benzamide]",7.70,6.85
"COC(=O)NCc1ccc(C(=O)Nc2cc(-c3ccccc3)ccc2N)cc1 [Example 9, methyl[(4-{[(4-aminobiphenyl-3-yl)amino]carbonyl}phenyl)methyl]carbamate]",7.77,6.59
"Nc1ccc(-c2ccccc2)cc1NC(=O)c1ccc(CNC(=O)Cc2ccccc2)cc1 [Example 34, N-(4-aminobiphenyl-3-yl)-4-{[(phenylacetyl)amino]methyl}benzamide]",7.14,6.51
"CCCC(=O)NCc1ccc(C(=O)Nc2cc(-c3cccs3)ccc2N)cc1 [Example 38, N-[2-amino-5-(2-thienyl)phenyl]-4-[(butanoylamino)methyl]benzamide]",7.92,6.82
"CC(C)OC(=O)NCc1ccc(C(=O)Nc2cc(-c3cccs3)ccc2N)cc1 [Example 18, 1-methylethyl {[4-({[2-amino-5-(2-thienyl)phenyl]amino}carbonyl)phenyl]methyl}carbamate]",7.72,6.92
"Nc1ccc(-c2cccs2)cc1NC(=O)c1ccc(CNC(=O)Oc2ccccc2)cc1 [Example 21, phenyl {[4-({[2-amino-5-(2-thienyl)phenyl]amino}carbonyl)phenyl]methyl}carbamate]",7.11,6.19
"Nc1ccc(-c2ccccc2)cc1NC(=O)c1ccc(CNC(=O)c2ccccc2)cc1 [Example 35, N-(4-aminobiphenyl-3-yl)-4-{[(phenylcarbonyl)amino]methyl}benzamide]",7.72,6.80
"CC(C)CC(=O)NCc1ccc(C(=O)Nc2cc(-c3ccccc3)ccc2N)cc1 [Example 29, N-(4-aminobiphenyl-3-yl)-4-{[(3-methylbutanoyl)amino]methyl}benzamide]",7.85,6.68
"CCCOC(=O)NCc1ccc(C(=O)Nc2cc(-c3cccs3)ccc2N)cc1 [Example 19, propyl {[4-({[2-amino-5-(2-thienyl)phenyl]amino}carbonyl)phenyl]methyl}carbamate]",7.72,6.96
"CCCC(=O)NCc1ccc(C(=O)Nc2cc(-c3ccccc3)ccc2N)cc1 [Example 25, N-(4-aminobiphenyl-3-yl)-4-[(butanoylamino)methyl]benzamide]",7.77,6.66
"Nc1ccc(-c2ccccc2)cc1NC(=O)c1ccc(CNC(=O)CCc2ccccc2)cc1 [Example 31, N-(4-aminobiphenyl-3-yl)-4-{[(3-phenylpropanoyl)amino]methyl}benzamide]",7.85,6.38
"COC(=O)NCc1ccc(C(=O)Nc2cc(-c3cccs3)ccc2N)cc1 [Example 17, methyl {[4-({[2-amino-5-(2-thienyl)phenyl]amino}carbonyl)phenyl]methyl}carbamate]",8.22,7.02
"Nc1ccc(-c2ccccc2)cc1NC(=O)c1ccc(CNC(=O)C2CC2)cc1 [Example 26, N-(4-aminobiphenyl-3-yl)-4-{[(cyclopropylcarbonyl)amino]methyl}benzamide]",7.82,6.77
"Nc1ccc(-c2cccs2)cc1NC(=O)c1ccc(CNC(=O)CCc2ccccc2)cc1 [Example 44, N-[2-amino-5-(2-thienyl)phenyl]-4-{[(3-phenylpropanoyl)amino]methyl}benzamide]",7.62,6.70
"CC(=O)NCc1ccc(C(=O)Nc2cc(-c3ccccc3)ccc2N)cc1 [Example 23, 4-[(acetylamino)methyl]-N-(4-aminobiphenyl-3-yl)benzamide]",7.74,6.49
"Nc1ccc(-c2cccs2)cc1NC(=O)c1ccc(CNC(=O)CCc2cccnc2)cc1 [Example 56, N-[2-amino-5-(2-thienyl)phenyl]-4-{[(3-pyridin-3-ylpropanoyl)amino]methyl}benzamide]",7.89,6.80
"Nc1ccc(-c2cccs2)cc1NC(=O)c1ccc(CNC(=O)c2ccccc2)cc1 [Example 48, N-[2-amino-5-(2-thienyl)phenyl]-4-{[(phenylcarbonyl)amino]methyl}benzamide]",7.89,6.96

# Continued by rising pIC50 [1], values first:
pIC50 [1],pIC50 [2],SMILES
6.74,4.89,"Cc1cscc1-c1ccc(N)c(NC(=O)c2ccc(CNc3ccncc3)cc2)c1 [Example 70, N-[2-amino-5-(4-methyl-3-thienyl)phenyl]-4-[(4-pyridinylamino)methyl]benzamide]"
7.46,6.05,"CC(C)CNCc1ccc(C(=O)Nc2cc(-c3ccccc3)ccc2N)cc1 [Example 65, N-(4-amino-3-biphenylyl)-4-[(isobutylamino)methyl]benzamide]"
7.57,5.04,"Nc1ccc(-c2cccc(F)c2)cc1NC(=O)c1ccc(CNc2ccncc2)cc1 [Example 68, N-(4-amino-3′-fluoro-3-biphenylyl)-4-[(4-pyridinylamino)methyl]benzamide]"
7.64,5.68,"Nc1ccc(-c2ccccc2F)cc1NC(=O)c1ccc(CNc2ccncc2)cc1 [Example 67, N-(4-amino-2′-fluoro-3-biphenylyl)-4-[(4-pyridinylamino)methyl]benzamide]"
7.64,5.96,"COCC(C)NCc1ccc(C(=O)Nc2cc(-c3ccccc3)ccc2N)cc1 (stereo not shown) [Example 66, N-(4-amino-3-biphenylyl)-4-{[(2-methoxy-1-methylethyl)amino]methyl}benzamide]"
7.77,6.92,"CCC(=O)NCc1ccc(C(=O)Nc2cc(-c3ccccc3)ccc2N)cc1 [Example 24, N-(4-aminobiphenyl-3-yl)-4-[(propanoylamino)methyl]benzamide]"
7.80,6.82,"Nc1ccc(-c2cccs2)cc1NC(=O)c1ccc(CNC(=O)Cc2ccccc2)cc1 [Example 47, N-[2-amino-5-(2-thienyl)phenyl]-4-{[(phenylacetyl)amino]methyl}benzamide]"
7.92,6.89,"CCC(=O)NCc1ccc(C(=O)Nc2cc(-c3cccs3)ccc2N)cc1 [Example 37, N-[2-amino-5-(2-thienyl)phenyl]-4-[(propanoylamino)methyl]benzamide]"
7.92,6.89,"CCOC(=O)NCc1ccc(C(=O)Nc2cc(-c3cccs3)ccc2N)cc1 [Example 16, ethyl {[4-({[2-amino-5-(2-thienyl)phenyl]amino}carbonyl)phenyl]methyl}carbamate]"
8.00,5.77,"Nc1ccc(-c2ccccc2)cc1NC(=O)c1ccc(CNc2ccncc2)cc1 [Example 61, N-(4-amino-3-biphenylyl)-4-[(4-pyridinylamino)methyl]benzamide]"
8.00,5.44,"CN(Cc1ccc(C(=O)Nc2cc(-c3ccccc3)ccc2N)cc1)c1ccncc1 [Example 62, N-(4-amino-3-biphenylyl)-4-{[methyl(4-pyridinyl)amino]methyl}benzamide]"

# — patent US9096559B2, “4-carboxybenzylamino derivatives as histone deacetylase inhibitors” (Merck Sharp & Dohme Corp., priority 2007, dated 2015)
